In EP1501797B1, “3-(SUBSTITUTED AMINO)-1H-INDOLE-2-CARBOXYLIC ACID ESTER AND 3-(SUBSTITUTED AMINO)-BENZO[B]THIOPHENE-2-CARBOXYLIC ACID ESTER DERIVATIVES AS INTERLEUKIN-4 GENE EXPRESSION INHIBITORS” (Aventis Pharmaceuticals Inc., priority 2002, dated 2003):
pIC50: −log10 of the molar value. Several values for one entry are separate records, joined by “and”; a condition that tells them apart may be missing. Equal values may be shown once.

What was measured:
[1] = test system: IgG1 Anti-DNP Antibody; test: In vivo model of humoral immunity in mice (DNP-KLH), IgG1 anti-DNP antibody
Experimental: Female Balb/c mice, each weighing approximately 20 to 25 grams each, aged 5 to 8 weeks are used. Each experiment uses 30 mice.
The antigen for immunization is 2,4-dinitrophenyl (DNP) or 2,4,6-trinitrophenyl (TNP) conjugated to keyhole limpet haemocyanin (KLH). The antigen (100 µg/mouse) is adsorbed to an adjuvant (colloidal aluminum hydroxide) and given i.p. to animal in a total volume of 0.2-0.3 ml.
Animals are randomly divided into 5 groups of 6 mice each. Group 1 is a positive control group, Groups 2, 3, and 4 are test compound groups, and Group 5 is a vehicle control group. Compounds may be given by i.n., i.p., p.o., s.c., i.m. or i.v. administration. […] On day 8 after the immunization, mice are bled by cardiac puncture under anesthesia (isoflurane), and the serum samples are stored at -20°C until required for antibody analysis. The anesthetized animals are euthanized with overdosage of sodium pentobarbital at the end of experiment. Statistical analysis of the data are performed using ANOVA.
Mice are immunized with a hapten carrier conjugate, DNP-KLH, and anti-DNP antibody levels are determined in a isotype specific manner as described above. […]

[2] = test system: IFN-γ; test: Human primary Th1 (NYTh1) cells, IFN-γ ELISA; format: cell-based; details: data from 8 different experiments combined
Experimental: (§1) Briefly, CD4^+CD45RA^+ T cells, isolated from donor peripheral blood mononuclear cells of healthy donors, are educated in the presence of anti-CD3/CD28 antibodies and various growth factors to obtain either a Thl-like or Th2-like phenotypes as determined by the known cytokine profiles of these two cell types.
Generation of Th1/Th2 cells: Twenty four well plates are coated with 300 µL anti-CD3 Ab (10 µg/ml, in PBS 1-2 h at 37°C or overnight at 4°C), and washed two times with PBS. CD4^+/CD45RA^+ cells at a density of 10^6/ml in RPMI, is prepared and added to RPMI medium containing 10% Hyclone serum/ glutamine and 1-2 µg/ml anti-CD28 Ab. The cells are split in two aliquots. […] The degree of polarization is determined by intracellular staining of cells with anti-IFN-γ and anti-IL-4 antibodies from Pharmingen, and using flow cytometry from Becton Dickinson (BD), according to manufacturers description. […] For compound testing, large quantities of Th1 and Th2 cells derived from a given donor (NYTh1 and NYTh2) were expanded and frozen as aliquots in liquid nitrogen. […]
Re-stimulation by allogeneic cells: Human PBMCs, to be used as alloantigens, are isolated from freshly drawn blood by Ficoll separation. […] Cells are counted and diluted to a final concentration of 2 x 10^6/ml in medium containing 10 µg/ml PHA and 200 units/ml IL-2. […]

[3] = test system: Human Th2 cells; test: Human primary Th2 cells, proliferation (viability, MTS assay); format: cell-based; details: Human primary Th2 cells; combined data from 10 different experiments; read-out: Prol. IC50
Experimental: as §1
Peripheral blood mononuclear cells (PBMC) are prepared from human blood by Ficoll-Hypacque (Pharmacia). The cells are washed two times in Hanks balanced salt solution (HBSS) and counted.
Naive T cells (CD4^+/CD45RA ) are prepared by negative selection method using following antibodies and Dynabeads: anti-CD8, anti-HLA-DR, (where HLA means human leucocyte antigen) anti-CD14, anti-CD16, anti-CD19, anti-CD45RO antibodies (all from R&D Systems, 1-2 µg/ml) are added to the cells, and the cells are kept on ice for 30 min. The cells are washed two times in HBSS, and goat anti- mouse Ig-beads, (bead:target ratio, 5:1) are added. The cells and beads are slowly rotated at 4°C for 20 min. (following the protocol supplied from Dynal). The supernatant is removed and fresh goat anti-mouse Ig-beads are added to the supernatant, which is slowly rotated at 4°C for 20 min. The cells are counted and phenotypically characterized by flow cytometric analysis.
CD4^+/CD45RA^+ cells at a density of 10^6/ml in RPMI, is prepared and added to RPMI medium containing 10% Hyclone serum/ glutamine and 1-2 µg/ml anti-CD28 Ab. The cells are split in two aliquots. For Th1 cells: anti-IL-4 Ab (1-2 µg/ml), IFN-γ (1 µg/ml, or 5000 units/ml) are added to the wells. For Th2 cells: IL-4 (100-200 ng/ml), anti-IFN-γ neutralizing Ab (1-2 µg/ml), anti-IL-12 neutralizing Ab (1-2 µg/ml) are added into the wells. […] The cells are transferred to fresh wells and grown in 200 units/ml IL-2 for 2 weeks by feeding them every other day with IL-2 containing medium and splitting the cultures 1:2 or 1:3 as needed. The degree of polarization is determined by intracellular staining of cells with anti-IFN-γ and anti-IL-4 antibodies from Pharmingen, and using flow cytometry from Becton Dickinson (BD), according to manufacturers description. The cells are stimulated with PHA and alloantigens at day 14 and 28 as described below. Eight days after the second allostimulation the cells can be used for compound screening or frozen for future use. For compound testing, large quantities of Th1 and Th2 cells derived from a given donor (NYTh1 and NYTh2) were expanded and frozen as aliquots in liquid nitrogen. The cells are thawed and cultured as and when needed. The thawed cells are stimulated with alloantigen/PHA combination. The cells are used for compound screening after 8-10 days in culture.
Re-stimulation by allogeneic cells: Human PBMCs, to be used as alloantigens, are isolated from freshly drawn blood by Ficoll separation. […] Cells are counted and diluted to a final concentration of 2 x 10^6/ml in medium containing 10 µg/ml PHA and 200 units/ml IL-2.
Ninetysix well Falcon tissue culture plates (Fisher Scientific) are coated with 100 microliters per well of 10 µg/ml anti-CD3 (PharMingen) antibody in phosphate buffered saline (PBS) and stored at 4°C one day before the experiment.
On the day of assay, anti-CD3 antibody coated plates are washed with PBS once to remove all soluble anti-CD3 antibody. […] All compounds and controls are assayed in triplicates.

## O=C(O)c1[nH]c2ccccc2c1Nc1ccncc1 [Example 28, 3-(4-Pyridinylamino)-1H-indole-2-carboxylic acid]
[1]; individual animals 1-6, dose not stated
  IgG1 Anti-DNP Antibody Titer: 72.42 and 185.22 and 19.83 and 40.19 and 83.11 and 37.83
[1]; vehicle 167.69 +/-18.19, dose not stated
  IgG1 Anti-DNP Antibody Titer Mean+/-SE: 73.10 +/-24.38
[1]; versus vehicle
  IgG1 Anti-DNP Antibody Titer Inhibition: 56.5%
[2]
  pIC50: < 5.00
[3]
  pIC50: < 5.00
